Consider one compound from ChEMBL document CHEMBL4831513, “Discovery of quinazoline derivatives as a novel class of potent and in vivo efficacious LSD1 inhibitors by drug repurposing” (Eur J Med Chem, 2021).

pIC50: −log10 of the molar value. Activity calls are given as the source filed them. The calls are words filed in the database; no cut-off is given here.

The target of series [1] is T1, MAO-B (Homo sapiens, UniProt P27338).
T1 sequence (P27338 whole entry): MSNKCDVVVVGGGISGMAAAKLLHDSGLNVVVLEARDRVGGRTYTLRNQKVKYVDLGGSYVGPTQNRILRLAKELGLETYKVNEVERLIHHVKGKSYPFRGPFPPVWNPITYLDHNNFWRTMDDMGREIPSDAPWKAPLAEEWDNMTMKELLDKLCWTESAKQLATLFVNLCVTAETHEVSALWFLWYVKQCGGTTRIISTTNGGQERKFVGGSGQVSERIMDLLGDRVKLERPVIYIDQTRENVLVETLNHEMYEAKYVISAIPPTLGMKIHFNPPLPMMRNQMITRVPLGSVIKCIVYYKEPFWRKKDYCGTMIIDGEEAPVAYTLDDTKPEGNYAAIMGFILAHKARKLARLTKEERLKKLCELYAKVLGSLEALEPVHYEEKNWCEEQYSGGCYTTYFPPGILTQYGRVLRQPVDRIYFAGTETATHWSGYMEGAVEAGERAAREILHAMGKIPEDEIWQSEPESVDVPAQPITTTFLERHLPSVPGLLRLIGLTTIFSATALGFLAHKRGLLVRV
Briefly: Inhibition of N-terminal FLAG-tagged recombinant human MAO-B expressed in baculovirus-infected Sf9 cells at 5 uM using luciferin derivative as substrate pretreated for 15 mins followed by substrate addition and incubated for 60 mins by luciferase assay relative to control. Conditions: probe luciferin derivative, time 75 min.

Series [2] is described as follows: Ocular toxicity in nude mouse xenografted with human MGC-803 cells at 40 to 80 mg/kg/day, iv administered for 21 days. It counts as organism-based. The conditions noted are these: in vivo, 504 h, dose 40-80 mg/kg/day, time 21 day. A general note: In xenograft studies the graft and the host belong to different species.
For series [3], the target named is Tyrosine-protein kinase BTK (Homo sapiens) (UniProt Q06187). Put plainly: Inhibition of N-terminal GST-fused human full length recombinant BTK expressed in baculovirus-infected Sf21 cells at 5 uM using 5-FAM-EAIYAAPFAKKK as a substrate incubated for 60 mins in the presence of ATP by caliper analysis relative to control.
Tyrosine-protein kinase BTK (Homo sapiens), sequence (Q06187 whole entry, the tested form may be a part): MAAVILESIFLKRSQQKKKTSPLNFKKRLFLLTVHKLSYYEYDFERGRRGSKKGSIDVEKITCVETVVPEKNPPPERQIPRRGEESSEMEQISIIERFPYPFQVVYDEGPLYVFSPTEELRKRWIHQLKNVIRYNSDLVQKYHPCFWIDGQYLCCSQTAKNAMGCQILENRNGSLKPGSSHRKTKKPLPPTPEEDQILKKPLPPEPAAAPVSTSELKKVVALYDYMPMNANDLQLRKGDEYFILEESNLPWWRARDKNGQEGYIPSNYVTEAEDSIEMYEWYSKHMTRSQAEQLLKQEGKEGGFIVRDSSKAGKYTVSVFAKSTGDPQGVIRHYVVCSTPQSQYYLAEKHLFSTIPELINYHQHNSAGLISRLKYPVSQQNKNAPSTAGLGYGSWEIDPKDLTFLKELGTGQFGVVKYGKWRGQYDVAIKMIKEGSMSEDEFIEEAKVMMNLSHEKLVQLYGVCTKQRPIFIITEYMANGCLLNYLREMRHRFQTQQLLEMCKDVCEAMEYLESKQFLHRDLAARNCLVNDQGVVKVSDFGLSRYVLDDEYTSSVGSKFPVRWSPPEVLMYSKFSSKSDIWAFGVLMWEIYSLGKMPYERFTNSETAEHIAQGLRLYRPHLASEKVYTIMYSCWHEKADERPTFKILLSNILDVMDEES
For series [4], the system named is MGC-803. Put plainly: Induction of apoptosis in human MGC-803 cells assessed as necrotic cells at 20 uM measured after 24 hrs by Annexin V-FITC/PI staining based flow cytometry analysis (Rvb= 1%). It counts as functional.
Series [5] is described as follows: Aqueous solubility of the compound in water. The series is classed as physicochemical.
For series [6], the target named is Epidermal growth factor receptor (Homo sapiens, UniProt P00533). Briefly: Inhibition of EGFR (unknown origin).
Epidermal growth factor receptor, sequence (P00533 whole entry): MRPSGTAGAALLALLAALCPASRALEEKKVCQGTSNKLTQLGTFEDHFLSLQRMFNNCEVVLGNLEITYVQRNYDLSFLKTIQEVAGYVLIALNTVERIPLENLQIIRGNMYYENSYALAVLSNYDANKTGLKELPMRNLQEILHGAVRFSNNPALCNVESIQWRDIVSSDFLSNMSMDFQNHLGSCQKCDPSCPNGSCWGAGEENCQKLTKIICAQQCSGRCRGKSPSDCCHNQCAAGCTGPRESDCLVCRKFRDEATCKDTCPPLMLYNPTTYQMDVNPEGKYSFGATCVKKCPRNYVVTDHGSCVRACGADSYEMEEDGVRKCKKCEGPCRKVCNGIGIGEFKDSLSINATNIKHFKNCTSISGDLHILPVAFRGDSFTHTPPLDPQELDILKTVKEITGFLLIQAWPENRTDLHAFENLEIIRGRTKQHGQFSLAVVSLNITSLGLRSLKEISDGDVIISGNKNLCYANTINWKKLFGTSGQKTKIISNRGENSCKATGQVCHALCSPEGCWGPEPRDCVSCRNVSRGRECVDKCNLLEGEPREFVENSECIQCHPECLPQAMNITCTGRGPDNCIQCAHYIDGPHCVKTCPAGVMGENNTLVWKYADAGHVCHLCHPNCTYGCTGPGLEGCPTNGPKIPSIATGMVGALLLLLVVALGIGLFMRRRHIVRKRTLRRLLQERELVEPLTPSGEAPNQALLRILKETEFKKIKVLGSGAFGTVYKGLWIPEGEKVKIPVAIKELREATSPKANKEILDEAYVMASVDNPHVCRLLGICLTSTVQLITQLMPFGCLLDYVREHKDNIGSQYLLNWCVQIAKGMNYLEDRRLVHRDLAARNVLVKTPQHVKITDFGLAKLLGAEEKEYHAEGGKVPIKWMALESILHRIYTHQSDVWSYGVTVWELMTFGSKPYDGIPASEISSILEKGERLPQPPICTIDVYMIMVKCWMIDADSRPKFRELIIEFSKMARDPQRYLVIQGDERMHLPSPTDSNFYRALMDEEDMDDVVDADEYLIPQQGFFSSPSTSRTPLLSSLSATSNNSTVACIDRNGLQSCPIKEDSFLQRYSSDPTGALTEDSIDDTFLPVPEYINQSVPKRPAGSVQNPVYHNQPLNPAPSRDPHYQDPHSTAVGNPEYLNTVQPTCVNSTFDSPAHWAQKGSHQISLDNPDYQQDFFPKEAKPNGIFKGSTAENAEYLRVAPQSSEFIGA
Series [7] relates to MGC-803. Briefly: Inhibition of cell migration in human MGC-803 cells at 0.5 uM measured after 48 hrs by transwell assay relative to control. It counts as functional.
Series [8] relates to MGC-803. Put plainly: Antitumor activity against human MGC-803 cells xenografted in nude mouse assessed as chromatin condensation in tumor tissue at 40 to 80 mg/kg/day, iv measured after 21 days by H and E staining based histopathological analysis. The conditions noted are these: dose 40-80 mg/kg/day, time 21.0 day. The series is classed as functional, organism-based.
For series [9], the system named is MGC-803. Put plainly: Antitumor activity against human MGC-803 cells xenografted in nude mouse assessed as inhibition of tumor growth at 40 to 80 mg/kg/day, iv administered for 21 days. It counts as functional, organism-based. Conditions: dose 40-80 mg/kg/day, time 21.0 day.
For series [10], the system named is MGC-803. Put plainly: Inhibition of epithelial mesenchymal transition process in human MGC-803 cells assessed as decrease in N-cadherin expression at 0.1 to 0.5 uM measured after 24 hrs western blot analysis. It counts as functional, cell-based. Conditions: dose 0.1-0.5 µM. On the technique in general: In western blotting, separated proteins are transferred to a membrane and probed.

Series [11] deals with HepG2. Briefly: cells. Conditions: Homo sapiens, HepG2, 72 h.
Description: Antiproliferative activity against human HepG2 cells assessed as cell growth inhibition measured after 72 hrs by MTT assay
Series [12] relates to MGC-803. Briefly: Antitumor activity against human MGC-803 cells xenografted in nude mouse assessed as reduction in tumor weight at 40 mg/kg/day, iv administered for 21 days relative to control. The conditions noted are these: MGC-803, iv, 504 h, time 21 day. The series is classed as functional.
The target in series [13] is Lysine-specific histone demethylase 1A (Homo sapiens, UniProt O60341). Briefly: Inhibition of LSD1 in human MGC-803 cells assessed as increase in H3K4me2 expression measured after 24 hrs by western blot analysis. It counts as cell-based. Conditions: dose 5-20 µM.
Series [14] has as its target Glycogen synthase kinase-3 beta (Homo sapiens) (UniProt P49841). Briefly: Inhibition of GSK-3beta (unknown origin) at 5 uM relative to control.
For series [15], the system named is MGC-803. Put plainly: Induction of apoptosis in human MGC-803 cells assessed as necrotic cells at 5 uM measured after 24 hrs by Annexin V-FITC/PI staining based flow cytometry analysis (Rvb= 1%). The series is classed as functional.
For series [16], the system named is PC-3. Briefly: cells. The conditions noted are these: Homo sapiens, PC-3, 72 h.
Description: Antiproliferative activity against human PC-3 cells assessed as cell growth inhibition measured after 72 hrs by MTT assay
Series [17] relates to BGC-823. Put plainly: cells. The conditions noted are these: Homo sapiens, BGC-823, 72 h.
Description: Antiproliferative activity against human BGC-823 cells assessed as cell growth inhibition measured after 72 hrs by MTT assay
Series [18] has as its system ECa-109 cell line. Put plainly: cells. Conditions: Homo sapiens, ECa-109, 72 h.
Description: Antiproliferative activity against human EC109 cells assessed as cell growth inhibition measured after 72 hrs by MTT assay

Glycogen synthase kinase-3 beta (Homo sapiens), sequence (P49841 whole entry, looked up): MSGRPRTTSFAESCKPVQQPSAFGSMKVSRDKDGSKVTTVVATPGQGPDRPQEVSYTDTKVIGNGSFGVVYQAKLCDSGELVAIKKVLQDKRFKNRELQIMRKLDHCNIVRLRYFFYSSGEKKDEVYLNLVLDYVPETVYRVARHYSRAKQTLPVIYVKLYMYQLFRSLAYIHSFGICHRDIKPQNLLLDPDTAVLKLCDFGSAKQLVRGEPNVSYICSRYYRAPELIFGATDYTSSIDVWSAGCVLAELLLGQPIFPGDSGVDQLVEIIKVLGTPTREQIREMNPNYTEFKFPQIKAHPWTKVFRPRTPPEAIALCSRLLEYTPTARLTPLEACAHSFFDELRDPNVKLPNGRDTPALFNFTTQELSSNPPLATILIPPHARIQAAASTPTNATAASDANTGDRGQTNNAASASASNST

In the case of `COCCOc1cc2ncnc(Sc3nc[nH]n3)c2cc1OCCOC`, the inhibition at 1.25 h, 5 µM in [1] is 18%. The figures for the Activity result in [2], in [4] and in series [15] were “Non-Toxic”, 2.3% and 0.4%, respectively. Besides, the inhibition was under 2% in series [3], “Dose-Dependent Effect” in [13] and 13% in series [14]. For the same compound, the solubility in series [5] is over 100 mg/mL. The pIC50 in series [6] is 5.28; in series [11], 4.79; in series [16], under 4.30; in [17], 4.81; in [18] it was 5.02. Moreover, at 0.5 µM the inhibition in series [7] was 70%. Moreover, the outcome in series [8] and in [9] was Active. The inhibition result in [10] was “Active”. In series [12], the inhibition in vivo at 40 mg/kg/day amounted to 81.6%.

Broadly, the inhibition is the share of the control response that was lost under treatment. As usually defined, the solubility is the concentration that dissolves in the medium under given conditions. Higher therefore signals much dissolved substance. Usually pIC50 stands for the IC50 on a negative log10 scale, so that one unit is a factor of ten. A low value points to a large IC50. For orientation: inhibition in vivo means the relative decrease from the control value, in per cent.
